Where “and” joins values, the source holds several entries; their conditions need not be identical. Equal entries are not always repeated.
Tests used:
Settings in all cases: incubation time: 72 h
[1] = system: CAL-120; assay: normalised response (% of control), CellTiter-Glo; higher = more viable cells (100 = DMSO, 0 = benzethonium chloride kill control)
Method in brief: (§1)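 Breast cancer cell lines in 20 µl suspension were added to 384-well plates containing compound at 5 concentrations, spaced in 10-fold steps across a 10,000-fold range chosen for each compound, and incubated for 72 h. CellTox Green fluorescence was read at 485/520 nm, followed by CellTiter-Glo luminescence after 10 min at room temperature. Signals on each plate were normalised so that 0.1 % DMSO equals 100 and a positive kill control equals 0. Every value in the table is the normalised signal at one concentration of the series.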

[2] = system: HCC1143; assay: as above
Method in brief: as §1

[3] = system: MFM-223; assay: as above
Method in brief: as §1

[4] = system: MDA-MB-436; assay: as above
Method in brief: as §1

[5] = system: HDQ-P1; assay: as above
Method in brief: as §1

[6] = system: BT-474; assay: as above
Method in brief: as §1

[7] = system: SK-BR-3; assay: as above
Method in brief: as §1

[8] = system: CAL-85-1; assay: as above
Method in brief: as §1

[9] = system: MDA-MB-468; assay: as above
Method in brief: as §1

[10] = system: HCC1599; assay: as above
Method in brief: as §1

[11] = system: CAL-148; assay: as above
Method in brief: as §1

[12] = system: MDA-MB-231; assay: as above
Method in brief: as §1

[13] = system: MCF-10A; assay: as above
Method in brief: as §1

[14] = system: HCC1937; assay: as above
Method in brief: as §1

[15] = system: Hs578T; assay: as above
Method in brief: as §1

[16] = system: CAL-51; assay: as above
Method in brief: as §1

[17] = system: DU-4475; assay: as above
Method in brief: as §1

[18] = system: BT-549; assay: as above
Method in brief: as §1

[19] = system: MDA-MB-453; assay: as above
Method in brief: as §1

[20] = system: CAL-120; assay: normalised viability (% of control), CellTiter-Blue; higher = more viable cells (100 = DMSO, 0 = benzethonium chloride kill control)
Method in brief: (§2)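 Breast cancer cell lines in 20 µl suspension were seeded onto 384-well plates pre-loaded with compound dissolved in 5 µl medium, then incubated 72 h. CellTiter-Blue reagent (2.5 µl) was added for 2 h at 37 °C and fluorescence read at 560/590 nm. Each plate was normalised to vehicle (100) and a positive kill control (0), with Z'-factor quality control. The value is normalised viability at one listed concentration of the series.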

[21] = system: HCC1143; assay: as above
Method in brief: as §2

[22] = system: MFM-223; assay: as above
Method in brief: as §2

[23] = system: MDA-MB-436; assay: as above
Method in brief: as §2

[24] = system: HDQ-P1; assay: as above
Method in brief: as §2

[25] = system: BT-474; assay: as above
Method in brief: as §2

[26] = system: SK-BR-3; assay: as above
Method in brief: as §2

[27] = system: CAL-85-1; assay: as above
Method in brief: as §2

[28] = system: MDA-MB-468; assay: as above
Method in brief: as §2

[29] = system: HCC1599; assay: as above
Method in brief: as §2

[30] = system: CAL-148; assay: as above
Method in brief: as §2

[31] = system: MDA-MB-231; assay: as above
Method in brief: as §2

[32] = system: HCC1937; assay: as above
Method in brief: as §2

[33] = system: Hs578T; assay: as above
Method in brief: as §2

[34] = system: CAL-51; assay: as above
Method in brief: as §2

[35] = system: DU-4475; assay: as above
Method in brief: as §2

[36] = system: BT-549; assay: as above
Method in brief: as §2

[37] = system: MDA-MB-453; assay: as above
Method in brief: as §2

| SMILES | normalised response [1] [%] | normalised response [2] [%] | normalised response [3] [%] | normalised response [4] [%] | normalised response [5] [%] | normalised response [6] [%] | normalised response [7] [%] | normalised response [8] [%] | normalised response [9] [%] | normalised response [10] [%] | normalised response [11] [%] | normalised response [12] [%] | normalised response [13] [%] | normalised response [14] [%] | normalised response [15] [%] | normalised response [16] [%] | normalised response [17] [%] | normalised response [18] [%] | normalised response [19] [%] | normalised viability [20] | normalised viability [21] | normalised viability [22] | normalised viability [23] | normalised viability [24] [%] | normalised viability [25] | normalised viability [26] | normalised viability [27] | normalised viability [28] | normalised viability [29] | normalised viability [30] | normalised viability [31] | normalised viability [32] | normalised viability [33] | normalised viability [34] | normalised viability [35] | normalised viability [36] | normalised viability [37] |
| --- | --- | --- | --- | --- | --- | --- | --- | --- | --- | --- | --- | --- | --- | --- | --- | --- | --- | --- | --- | --- | --- | --- | --- | --- | --- | --- | --- | --- | --- | --- | --- | --- | --- | --- | --- | --- | --- |
| COc1cc2c(Oc3ccc(NC(=O)C4(C(=O)Nc5ccc(F)cc5)CC4)cc3F)ccnc2cc1OCCCN1CCOCC1 [Foretinib] (0.1 nM) | 100 | 99 | 102 | 107 | 105 | 105 | 107 | 100 | 108 | 93.4 | 109 | 99.7 | 97.2 | 99.2 | 89.5 | 74.1 | 102 | 104 | 109 | 92.1% | 100% | 97% | 95.8% | 75.8 | 99.9% | 89% | 90.2% | 101% | 98.9% | 107% | 102% | 101% | 110% | 91.8% | 100% | 94.6% | 95% |
| NC(=O)NO [Hydroxyurea] (10 nM) | 96.7 | 104 | 105 | 90.1 | 97.3 | 98.6 | 113 | 98.5 | 103 | 101 | 101 | 98.3 | 110 | 91.6 | 101 | 74.9 | 106 | 108 | 110 | 98.9% | 102% | 104% | 109% | 116 | 97.2% | 52% | 109% | 112% | 113% | 107% | 101% | 95.8% | 107% | 100% | 123% | 99.2% | 105% |
| O=NN(CCCl)C(=O)NC1CCCCC1 [Lomustine] (1 nM) | 99.1 | 105 | 97.5 | 98.2 | 97.2 | 101 | 104 | 97.6 | 99.3 | 105 | 94.4 | 97.5 | 107 | 94.9 | 106 | 91.6 | 93.9 | 94.2 | 108 | 91.6% | 95.2% | 83.4% | 109% | 110 | 88% | 93.6% | 98.8% | 100% | 109% | 107% | 97.3% | 86.3% | 100% | 108% | 102% | 107% | 114% |
| O=C(O)CC[C@H]1CC[C@@](c2cc(F)ccc2F)(S(=O)(=O)c2ccc(Cl)cc2)CC1 [MK-0752] (0.1 nM) | 95.5 | 102 | 106 | 101 | 97.8 | 101 | 111 | 99.5 | 102 | 79.3 | 101 | 104 | 116 | 100 | 98.7 | 68.8 | 97.5 | 103 | 116 | 88.8% | 99.7% | 102% | 109% | 99.9 | 119% | 94.4% | 100% | 96.7% | 103% | 106% | 99.2% | 84.8% | 106% | 98.2% | 106% | 117% | 117% |
| NC1(c2ccc(-c3nc4ccn5c(=O)[nH]nc5c4cc3-c3ccccc3)cc2)CCC1 [MK-2206] (0.1 nM) | 112 | 102 | 112 | 98.3 | 103 | 101 | 110 | 98.7 | 103 | 87.8 | 110 | 106 | 107 | 100 | 97.2 | 87.9 | 101 | 99.5 | 98.9 | 106% | 118% | 100% | 108% | 113 | 115% | 107% | 108% | 111% | 94.9% | 106% | 106% | 129% | 107% | 99.9% | 118% | 114% | 105% |
| NC(=O)c1cccc2cn(-c3ccc([C@@H]4CCCNC4)cc3)nc12 [MK-4827] (1 nM) | 101 | 105 | 101 | 96.9 | 100 | 113 | 112 | 102 | 104 | 110 | 115 | 101 | 102 | 102 | 103 | 99.9 | 98.1 | 102 | 99.3 | 90.2% | 92.1% | 92.2% | 80.8% | 85.9 | 121% | 95.5% | 82.1% | 91.7% | 97.1% | 105% | 96% | 97.3% | 94.2% | 108% | 102% | 112% | 97.8% |
| O=C(c1cc(Cc2n[nH]c(=O)c3ccccc23)ccc1F)N1CCN(C(=O)C2CC2)CC1 [Olaparib] (1 nM) | 92.4 | 93.1 | 96.7 | 104 | 95.9 | 96.7 | 102 | 103 | 99 | 101 | 93 | 99.1 | 92.8 | 90.5 | 99.9 | 114 | 102 | 103 | 103 | 73.8% | 88.4% | 91% | 113% | 96.9 | 85.8% | 91.2% | 87.6% | 95.3% | 89.9% | 87.1% | 84.8% | 102% | 99.7% | 103% | 94.1% | 86% | 92.7% |
| CO[C@H](C(=O)[C@@H](O)[C@@H](C)O)[C@@H]1Cc2cc3cc(O[C@H]4C[C@@H](O[C@@H]5C[C@@H](O)[C@H](O)[C@@H](C)O5)[C@H](O)[C@@H](C)O4)c(C)c(O)c3c(O)c2C(=O)[C@H]1O[C@H]1C[C@@H](O[C@@H]2C[C@@H](O)[C@@H](O[C@@H]3C[C@](C)(O)[C@H](O)[C@@H](C)O3)[C@@H](C)O2)[C@H](O)[C@@H](C)O1 [Plicamycin] (1 nM) | 113 | 92.6 | 106 | 95 | 101 | 104 | 108 | 102 | 113 | 102 | 112 | 99.8 | 103 | 96.9 | 102 | 92.5 | 107 | 102 | 108 | 82.5% and 79.1% | 96.8% and 82.4% | 91.7% and 84.2% | 108% and 92.6% | 111 | 106% and 92.2% | 93.3% and 88.4% | 87.5% and 82.1% | 96.7% and 101% | 101% and 107% | 111% and 108% | 94% and 98.7% | 97.7% and 85% | 113% and 92.7% | 102% and 112% | 112% and 109% | 93% and 90.1% | 95.5% and 109% |
